Consider one compound from article PMC7794217, “A bi-specific lectin from the mushroom Boletopsis grisea and its application in glycoanalytical workflows” (Scientific Reports, 2021).

Holding throughout (experiment): SPR (Biacore […]), equilibrium fit to […] model
Holding throughout (type): binding
A general note: Surface plasmon resonance follows binding to a sensor surface in real time, without labels.

The target in assay [1] is T1, BGL (Boletopsis grisea lectin), recombinant wild-type rBGL (Boletopsis grisea, UniProt A0A1L2F5J1).
T1 construct: full-length 143 amino acid ORF (GenBank KT315924), expressed in E. coli, lacking N-terminal Met

Assay [2] has as its target T2, BGL (Boletopsis grisea lectin), G49N mutant (Boletopsis grisea, UniProt A0A1L2F5J1, G49N).
T2 construct: full-length BGL ORF expressed in E. coli

Assay [3] deals with T3, BGL (Boletopsis grisea lectin), H71E mutant (Boletopsis grisea, UniProt A0A1L2F5J1, H71E).
T3 construct: full-length BGL ORF expressed in E. coli

In assay [4] the target is T4, BGL (Boletopsis grisea lectin), S48K mutant (Boletopsis grisea, UniProt A0A1L2F5J1, S48K).
T4 construct: full-length BGL ORF expressed in E. coli
T4 sequence (A0A1L2F5J1 entry or part of it S48K): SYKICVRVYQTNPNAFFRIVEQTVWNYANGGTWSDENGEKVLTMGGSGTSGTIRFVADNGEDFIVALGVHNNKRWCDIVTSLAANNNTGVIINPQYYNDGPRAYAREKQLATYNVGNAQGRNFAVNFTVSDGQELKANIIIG

T1 sequence (A0A1L2F5J1 2-143): as the sequence (A0A1L2F5J1 entry or part of it S48K) above
T3 sequence (A0A1L2F5J1 entry or part of it H71E): as the sequence (A0A1L2F5J1 entry or part of it S48K) above
T2 sequence (A0A1L2F5J1 entry or part of it G49N): as the sequence (A0A1L2F5J1 entry or part of it S48K) above

Take `CC(=O)N[C@H]1C(O)O[C@H](CO)[C@@H](O)[C@@H]1O` (stereo partly shown) [GlcNAc]: the Kd (usually the constant that tells how readily two partners part at equilibrium) in assay [1] came out at 1086 ± 8 µM; in assay [2], 910 ± 10 µM; in assay [3] it was 2330 ± 80 µM; in assay [4] it was 1010 ± 20 µM.
